In patent US8785655B2, “Ionic liquid solvents” (Dublin City University, priority 2009, dated 2014):
Counter-ions that a name gives are not always drawn. Like-named read-outs stand apart in the source and are kept apart here.

Columns and labels:
[1] = test system: Escherichia Coli; assay: Toxicity of pyridinium CILs, IC50 against bacteria strains; assay type: cell-based; settings: read-out: IC50 values
Experimental: (§1) KG 2013 and KG 2015 screened against 5 bacteria strains: Pseudomonas Putida (CP1), Pseudomonas Putida (KT2440), Escherichia Coli, Bacillus Subtilis, and Pseudomonas Fluorescens. KG 1043 screened against 4 strains Pseudomonas Putida (CP1), Pseudomonas Putida (KT2440), Escherichia Coli, and Pseudomonas Fluorescens. All 3 pyridinium ionic liquids have low antimicrobial toxicity (IC50>1 mM).

[2] = test system: Pseudomonas Fluorescens; assay: as above; assay type: cell-based; settings: read-out: IC50 values
Experimental: as §1

[3] = test system: Pseudomonas Putida (KT2440); assay: as above; assay type: cell-based; settings: read-out: IC50 values
Experimental: as §1

[4] = test system: Pseudomonas Putida (CP1); assay: as above; assay type: cell-based; settings: read-out: IC50 values
Experimental: as §1

[5] = test system: Bacillus Subtilis; assay: as above; assay type: cell-based; settings: read-out: IC50 values
Experimental: as §1

[6] = test system: Staphylococcus epidermidis H 6966/08; assay: Screen against bacteria, MIC/IC80; assay type: cell-based; settings: SE
[7] = test system: fungi and bacteria; assay type: cell-based
Experimental: All the 12 bromide salts and 12 octylsulfate CILs in the table below were screened against fungi and bacteria.
CILs with bromide as anion have been screened against the following Fungi and bacteria:
. […] MICs were determined twice and in duplicate.

[8] = test system: Trichophyton mentagrophytes 445; assay: In vitro antifungal activity, MIC by microdilution (NCCLS M27-A); settings: TM
[9] = test system: Absidia corymbifera 272; assay: as above; settings: AC
[10] = test system: Klebsiella pneumoniae D 11750/08; assay: Screen against bacteria, MIC/IC80; assay type: cell-based; settings: KP
[11] = test system: Staphylococcus aureus H 5996/08 Methiciline-resistant; assay: Screen against bacteria, MIC/IC80; assay type: cell-based; settings: MRSA
[12] = test system: Aspergillus fumigatus 231; assay: In vitro antifungal activity, MIC by microdilution (NCCLS M27-A); settings: AF
[13] = test system: Candida krusei ATCC 6258; assay: as above
Experimental: (§2) In vitro antifungal activities of the compounds were evaluated on the collection of fungal strains deposited at the Department of Biological and Medical Sciences, Faculty of Pharmacy, Charles University, Czech Republic. All the isolates were maintained on Sabouraud dextrose agar prior to being tested.
(§3) Minimum inhibitory concentrations (MICs) were determined by the microdilution format of the NCCLS M27-A guidelines. […] RPMI 1640 (Sevapharma, Prague) medium supplemented with L-glutamine and buffered with 0.165 M morpholinepropanesulfonic acid to pH 7.0 was used as the test medium. The wells of the microdilution tray contained 100 μl of the RPMI 1640 medium with 2-fold serial dilutions of the compounds (1000 to 0.24 μmol/l for the new compounds) and 100 μl of inoculum suspension. Fungal inoculum in RPMI 1640 was prepared to give a final concentration of 5×103±0.2 cfu·ml-1. The trays were incubated at 35° C. and MICs were read visually for filamentous fungi and photometrically for yeasts as an optical density (OD) at 540 nm after 24 h and 48 h. The MICs were defined as 80% inhibition of the growth of control. MICs were determined twice and in duplicate. The deviations from the usually obtained were no higher than the nearest concentration value up and down the dilution scale.

[14] = test system: Candida albicans ATCC 90028; assay: as above
[15] = test system: Candida tropicalis 156; assay: as above; settings: CT
[16] = test system: Klebsiella pneumoniae J 14368/08 ESBL-positive; assay: Screen against bacteria, MIC/IC80; assay type: cell-based; settings: KP-E
[17] = test system: Candida krusei E28; assay: In vitro antifungal activity, MIC by microdilution (NCCLS M27-A)
Experimental: All the isolates were maintained on Sabouraud dextrose agar prior to being tested.
as §3

[18] = test system: Candida glabrata 20/l; assay: as above; settings: CG
[19] = test system: Candida albicans ATCC 44859; assay: as above
[20] = test system: Staphylococcus aureus CCM 4516/08; assay: Screen against bacteria, MIC/IC80; assay type: cell-based; settings: SA
[21] = test system: Enterococcus sp. J 14365/08; assay: Screen against bacteria, MIC/IC80; assay type: cell-based; settings: EF
[22] = test system: Candida parapsilosis ATCC 22019; assay: In vitro antifungal activity, MIC by microdilution (NCCLS M27-A); settings: CP
Experimental: as §2, §3

[23] = test system: Pseudomonas aeruginosa CCM 1961; assay: Screen against bacteria, MIC/IC80; assay type: cell-based; settings: PA
[24] = test system: Escherichia coli CCM4517; assay: Screen against bacteria, MIC/IC80; assay type: cell-based; settings: EC
[25] = test system: Candida lusitaniae 2446/l; assay: In vitro antifungal activity, MIC by microdilution (NCCLS M27-A); settings: CL

COC(=O)C(c1ccc(OC)c(OC)c1)[n+]1ccccc1 (centres unmarked) [KG 2013, RS-2-(3,4-dimethoxyphenyl)-2-(pyridinium) methyl acetate, chloride salt]
IC50 ([1]; Escherichia coli): > 1000 µM | IC50 ([2]; Pseudomonas fluorescens): > 1000 µM | IC50 ([3]; Pseudomonas putida): > 1000 µM | IC50 ([4]; Pseudomonas putida): > 1000 µM | IC50 ([5]; Bacillus subtilis): > 1000 µM

COC(=O)C(c1ccc2c(c1)OCO2)[n+]1ccccc1 (centres unmarked) [KG 2015, RS-2-(3,4-methylendioxyphenyl)-2-(pyridinium) methyl acetate, bromide salt]
IC50 ([1]; E. Coli): > 1000 µM | IC50 ([2]; P. Fluorescens): > 1000 µM | IC50 ([3]; P. Putida (KT2440)): > 1000 µM | IC50 ([4]; P. Putida (CP1)): > 1000 µM | IC50 ([5]; B. Subtilis): > 1000 µM

CCCCCCCCOS(=O)(=O)[O-].CCCCCOC(=O)C(OC(=O)Cn1cc[n+](C)c1)c1ccccc1 (centres unmarked) [KG304, RS-3-methyl-1-[1-(pentoxycarbonyl)-1-phenylmethoxycarbonylmethyl]imidazolium octyl sulphate]
MIC/IC80 ([6]; 24 h): 1000 µM | MIC/IC80 ([6]; 48 h): >1000 µM | toxicity / inhibition of the growth of fungi and bacteria [7]: inhibit the growth of fungi and bacteria | MIC/IC80 ([8]; 72 h): 250 µM | MIC/IC80 ([8]; 120 h): 500 µM | MIC/IC80 ([9]; 24 h): 1000 µM | MIC/IC80 ([9]; 48 h): 1000 µM | MIC/IC80 ([10]; 24 h): >1000 µM | MIC/IC80 ([10]; 48 h): >1000 µM | MIC/IC80 ([11]; 24 h): >1000 µM | MIC/IC80 ([11]; 48 h): >1000 µM | MIC/IC80 ([12]; 24 h): 500 µM | MIC/IC80 ([12]; 48 h): >1000 µM | MIC/IC80 ([13]; CK1, 24 h): 1000 µM | MIC/IC80 ([13]; CK1, 48 h): >1000 µM | MIC/IC80 ([14]; CA2, 24 h): >1000 µM | MIC/IC80 ([14]; CA2, 48 h): >1000 µM | MIC/IC80 ([15]; 24 h): >1000 µM | MIC/IC80 ([15]; 48 h): >1000 µM | MIC/IC80 ([16]; 24 h): >1000 µM | MIC/IC80 ([16]; 48 h): >1000 µM | MIC/IC80 ([17]; CK2, 24 h): >1000 µM | MIC/IC80 ([17]; CK2, 48 h): >1000 µM | MIC/IC80 ([18]; 24 h): >1000 µM | MIC/IC80 ([18]; 48 h): >1000 µM | MIC/IC80 ([19]; CA1, 24 h): 1000 µM | MIC/IC80 ([19]; CA1, 48 h): 1000 µM | MIC/IC80 ([20]; 24 h): 1000 µM | MIC/IC80 ([20]; 48 h): 1000 µM | MIC/IC80 ([21]; 24 h): >1000 µM | MIC/IC80 ([21]; 48 h): >1000 µM | MIC/IC80 ([22]; 24 h): >1000 µM | MIC/IC80 ([22]; 48 h): >1000 µM | MIC/IC80 ([23]; 24 h): >1000 µM | MIC/IC80 ([23]; 48 h): >1000 µM | MIC/IC80 ([24]; 24 h): >1000 µM | MIC/IC80 ([24]; 48 h): >1000 µM | MIC/IC80 ([25]; 24 h): >1000 µM | MIC/IC80 ([25]; 48 h): >1000 µM

CCCCOC(=O)C(OC(=O)C[n+]1ccccc1)c1ccc2c(c1)OCO2 (centres unmarked) [KG 1043, RS-[1-(butoxycarbonyl)-1-(3,4-methylenedioxyphenyl)methoxycarbonylmethyl]pyridinium bromide]
IC50 ([1]; E. Coli): > 1000 µM | IC50 ([2]; P. Fluorescens): > 1000 µM | IC50 ([3]; P. Putida (KT2440)): > 1000 µM | IC50 ([4]; P. Putida (CP1)): > 1000 µM
